Assay results published in patent publication US7893043B2, “2-methylene-(17Z)-17(20)-dehydro-19,21-dinor-vitamin D analogs” (Wisconsin Alumni Research Foundation, priority 2008, dated 2011).
“Also recorded” adds a separate entry of the source. Where two headings read alike, the source gives them in different places.

Assays:
HL-60 cells = test: HL-60 differentiation (nitro blue tetrazolium reduction); assay type: cell-based, human; settings: differentiation of HL-60 cells into monocytes, FIG. 2, read-out: EC50, HL-60 cell differentiation
Experimental: The study drugs were dissolved in ethanol and the concentrations determined using UV spectrophotometry. Serial dilutions were prepared so that a range of drug concentrations could be tested without changing the final concentration of ethanol (≦0.2%) present in the cell cultures.
Human promyelocytic leukemia (HL60) cells were grown in RPMI-1640 medium containing 10% fetal bovine serum. The cells were incubated at 37° C. in the presence of 5% CO2.
HL60 cells were plated at 1.2×10^5 cells/ml. Eighteen hours after plating, cells in duplicate were treated with drug. Four days later, the cells were harvested and a nitro blue tetrazolium reduction assay was performed (Collins et al., 1979; J. Exp. Med. 149:969-974). The percentage of differentiated cells was determined by counting a total of 200 cells and recording the number that contained intracellular black-blue formazan deposits. Verification of differentiation to monocytic cells was determined by measuring phagocytic activity (data not shown).

[1] = system: 24-hydroxylase (24Ohase) gene promoter; test: In vitro transcription assay (24-hydroxylase promoter luciferase reporter in ROS 17/2.8 bone cells); assay type: cell-based; settings: ROS 17/2.8 cells, FIG. 3, read-out: EC50, transcriptional activity in bone cells
Experimental: Transcription activity was measured in ROS 17/2.8 (bone) cells that were stably transfected with a 24-hydroxylase (24Ohase) gene promoter upstream of a luciferase reporter gene (Arbour et al., 1998). Cells were given a range of doses. Sixteen hours after dosing the cells were harvested and luciferase activities were measured using a luminometer.
RLU=relative luciferase units.

[2] = system: bone calcium mobilization; test: Bone calcium mobilization (serum calcium) in vitamin D-deficient rats; assay type: in vivo, rat
Experimental: (§1) Male, weanling Sprague-Dawley rats were placed on Diet 11 (0.47% Ca) diet +AEK oil for one week followed by Diet 11 (0.02% Ca) +AEK oil for 3 weeks. The rats were then switched to a diet containing 0.47% Ca for one week followed by two weeks on a diet containing 0.02% Ca. Dose administration began during the last week on 0.02% calcium diet. Four consecutive ip doses were given approximately 24 hours apart. Twenty-four hours after the last dose, blood was collected from the severed neck and the concentration of serum calcium determined as a measure of bone calcium mobilization. The first 10 cm of the intestine was also collected for intestinal calcium transport analysis using the everted gut sac method.
Calcium mobilization from bone and intestinal calcium absorption in vitamin D-deficient animals. Using vitamin D-deficient rats on a low calcium diet (0.02%), the activities of Vit II Z and 1,25(OH)2D3 in intestine and bone were tested. As expected, the native hormone (1,25(OH)2D3) increased serum calcium levels at all dosages (FIG. 4).

[3] = system: intestinal calcium transport; test: Intestinal calcium transport, everted gut sac method; assay type: in vivo, rat; settings: for intestinal calcium transport: everted gut sac
Experimental: as §1
Intestinal calcium transport was evaluated in the same groups of animals using the everted gut sac method (FIG. 5). […] Thus, it may be concluded that Vit II Z has essentially similar intestinal calcium transport activity at the recommended lower doses to that of 1,25(OH)2D3.

[4] = target: T1, full-length recombinant rat vitamin D receptor (Rattus norvegicus, UniProt P13053); test: Vitamin D receptor binding, competition with [3H]-1,25(OH)2D3; settings: FIG. 1
T1 construct: Full-length recombinant rat receptor was expressed in E. coli BL21 (DE3) Codon Plus RIL cells; histidine tag (C); made in house; host or cells: E. coli BL21 (DE3) Codon Plus RIL
T1 sequence (P13053 1-423): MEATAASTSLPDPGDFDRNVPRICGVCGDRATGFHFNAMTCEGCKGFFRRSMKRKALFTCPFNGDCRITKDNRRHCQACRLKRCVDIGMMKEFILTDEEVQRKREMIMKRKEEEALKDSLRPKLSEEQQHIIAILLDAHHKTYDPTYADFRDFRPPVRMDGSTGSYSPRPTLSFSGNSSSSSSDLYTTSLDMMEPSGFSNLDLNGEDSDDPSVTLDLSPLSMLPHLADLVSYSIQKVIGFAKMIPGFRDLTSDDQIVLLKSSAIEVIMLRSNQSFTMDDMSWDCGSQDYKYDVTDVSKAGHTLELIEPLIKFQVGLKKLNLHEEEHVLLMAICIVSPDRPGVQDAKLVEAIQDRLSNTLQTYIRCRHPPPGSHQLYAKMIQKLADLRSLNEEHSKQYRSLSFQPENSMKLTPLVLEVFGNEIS
Experimental: Full-length recombinant rat receptor was expressed in E. coli BL21 (DE3) Codon Plus RIL cells and purified to homogeneity using two different column chromatography systems. The first system was a nickel affinity resin that utilizes the C-terminal histidine tag on this protein. The protein that was eluted from this resin was further purified using ion exchange chromatography (S-Sepharose Fast Flow). Aliquots of the purified protein were quick frozen in liquid nitrogen and stored at −80° C. until use. For use in binding assays, the protein was diluted in TEDK50 (50 mM Tris, 1.5 mM EDTA, pH7.4, 5 mM DTT, 150 mM KCl) with 0.1% Chaps detergent. The receptor protein and ligand concentration were optimized such that no more than 20% of the added radiolabeled ligand was bound to the receptor.
Radiolabeled and unlabeled ligands were added to 100 mcl of the diluted protein at a final ethanol concentration of ≦10%, mixed and incubated overnight on ice to reach binding equilibrium. The following day, 100 mcl of hydroxylapatite slurry (50%) was added to each tube and mixed at 10-minute intervals for 30 minutes. […] After the final wash, the pellets were transferred to scintillation vials containing 4 ml of Biosafe II scintillation cocktail, mixed and placed in a scintillation counter. Total binding was determined from the tubes containing only radiolabeled ligand.

For `C=C1/C(=C\C=C2/CCC[C@]3(C)[C@@H]([C@H](C)CCCC(C)(C)O)CC[C@@H]23)C[C@@H](O)C[C@@H]1O` [1α,25-dihydroxyvitamin D3, reference compound], the EC50 (HL-60 cells) was 2 nM, the EC50 [1] was 0.2 nM and the serum calcium levels ([2]; all dosages, rats on 0.02% Ca diet, FIG. 4) was “increased”. For the same molecule, the intestinal calcium transport ([3]; at the tested doses) was “significant increase”.
For `C=C1[C@H](O)CC(=C/C=C2\CCC[C@]3(C)/C(=C\CCCC(C)(C)O)CC[C@@H]23)C[C@H]1O` [Vit II Z, 2-methylene-(17Z)-17(20)-dehydro-19,21-dinor-1α,25-dihydroxyvitamin D3], the “VDR binding affinity compared to 1,25-(OH)2D3” value [4] was “nearly the same affinity”, the Ki ([4]; full-length recombinant rat VDR) was 0.2 nM and the EC50 (HL-60 cells; Homo sapiens) was 0.08 nM. The EC50 [1] was 0.03 nM, the “bone calcium mobilization activity compared to 1,25(OH)2D3” value ([2]; 87 pmol/day and 780 pmol/day for 4 consecutive days, rats on 0.02% Ca diet) was “about the same as or equal to” and the “bone calcium mobilization, effect of increasing the dose” value ([2]; 2340 pmol/day, rats on 0.02% Ca diet) was “without any substantial additional effect”. For the same molecule, the “bone calcium mobilization activity compared to 1,25(OH)2D3” value ([2]; vitamin D-deficient rats, ip, FIG. 4) was “about the same or equal bone calcium mobilization activity”, the intestinal calcium transport ([3]; 29 pmol/day) was “promotes intestinal calcium transport” and the intestinal calcium transport ([3]; 2340 pmol/day) was “very significant intestinal calcium transport activity”. The “intestinal calcium transport activity compared to 1,25(OH)2D3” value ([3]; vitamin D-deficient rats, ip, FIG. 5) was “about the same or equal activity; also recorded: about the same as or equal to”.
